Consider two compounds from patent publication US20220401381A1, “PERIPHERALLY ACTING CANNABIDIOL (CBD)-CONTAINING COMPOUNDS AND USES THEREOF FOR ENHANCING FEMALE SEXUAL FUNCTION OR TREATING FEMALE SEXUAL DISORDERS” (Vella Bioscience, Inc., priority 2019, published 2022).

The test system of data set [1] is rat vaginal smooth muscle tissue (intact/sham rats). Put plainly: EFS-induced contraction of vaginal strips from intact/sham rats, isolated organ bath, isometric tension. The text has this:
(§1) The following in vitro methodology was utilized to examine the concentration-dependent response of rat vaginal tissue, both proximal and distal, to CBD following contraction by electrical field stimulation (similar to efferent neurostimulation in vivo)
(§2) Female rats either intact (n=6) or bilaterally oophorectomized (OVX) (n=6 rats); the animals were euthanized 6 weeks post OVX and vagina dissected. Then, the vagina was cut into 2 halves, proximal and distal, and 4 strips max per region cut in circular direction were prepared and mounted as shown in FIG. 1.
(§3) The strips were excised from the tissue samples and connected to force transducers for isometric tension recording. Organ baths were filled with Krebs buffer maintained at 37° C. and bubbled with 95% O2 and 5% CO2, pH 7.4.
Female rats without (n=6) prior bilateral oophorectomies were euthanized and the proximal and distal vaginal tissue was harvested and suspended in a classic organ bath infused at a physiological temperature, pH, and oxygen level. […] This was also true regardless of whether the tissue was from the proximal or distal vaginal tissue (FIG. 2(A-E)).

For data set [2], the system named is rat vaginal smooth muscle tissue (OVX rats). Put plainly: EFS-induced contraction of vaginal strips from oophorectomized (OVX) rats, isolated organ bath, isometric tension.
Text: as §1, §2, §3
Female rats with (n=6) prior bilateral oophorectomies were euthanized and the proximal and distal vaginal tissue was harvested and suspended in a classic organ bath infused at a physiological temperature, pH, and oxygen level. […] This was also true regardless of whether the tissue was from the proximal or distal vaginal tissue (FIG. 3(A-E)).

The conditions of data set [3]: subcutaneous injection 45 minutes prior to sexual activity; cited from earlier work.

“Also recorded” adds a separate entry of the source.

Take `C=C(C)[C@@H]1CCC(C)=C[C@H]1c1c(O)cc(CCCCC)cc1O` [CBD, (−)-trans-cannabidiol]: the “relaxation (inhibition of EFS-induced contraction) of vaginal strips” value in data set [1] (intact/sham (non-oophorectomized) rats, proximal or distal tissue, CBD 1, 10 and 100 μg/ml, EFS 1 Hz to 48 Hz, vs vehicle) was “dramatic and significant dose-response relaxation; also recorded: significant relaxant effect”; in data set [2] (oophorectomized (OVX) rats, proximal or distal tissue, CBD 1, 10 and 100 μg/ml, EFS 1 Hz to 48 Hz, vs vehicle) it was “dramatic and significant dose-response relaxation; also recorded: significant relaxant effect”. In addition, the “relaxant effect on distal vaginal smooth muscle tissue” value in data set [1] (intact/sham rat, distal, FIG. 4B) was “statistically significant, unexpected, peripheral, dose-dependent pharmacological relaxant effect”; in data set [2] (OVX rat, distal, FIG. 5B), “statistically significant, unexpected, peripheral, dose-dependent pharmacological relaxant effect”. Moreover, the “relaxant effect on proximal vaginal smooth muscle tissue” value was “statistically significant, unexpected, peripheral, dose-dependent pharmacological relaxant effect” in data set [1] (intact/sham rat, proximal, FIG. 4A) and “statistically significant, unexpected, peripheral, dose-dependent pharmacological relaxant effect” in data set [2] (OVX rat, proximal, FIG. 5A).

Consider `CCCC[C@H](NC(C)=O)C(=O)N[C@H]1CC(=O)NCCCC[C@@H](C(=O)O)NC(=O)[C@H](Cc2c[nH]c3ccccc23)NC(=O)[C@H](CCCN=C(N)N)NC(=O)[C@@H](Cc2ccccc2)NC(=O)[C@H](Cc2cnc[nH]2)NC1=O` [bremelanotide], for which the “side-effect: nausea, incidence” value in data set [3] is given as 40%.
